Assay results reported in patent publication US8440628B2, “Medical compositions containing ghrelin” (Daiichi Sankyo Company, Limited, priority 2002, dated 2013).

Legend:
[1] = Stability of human ghrelin(1-7)amide in pH-adjusted purified water at 25°C (Example 8); type: physicochemical; settings: for Peak area ratio to total peak area: 25±2°C
Method: Human ghrelin(1-7)amide was dissolved in the purified water with about 0.12 μmol/mL (0.1 mg/mL). The pH of this solution was 5.0. This solution was divided into quarter, and one portion was kept alone and the pH values of the remaining three portions were adjusted to pH 1.8 (with 17 mM of hydrochloric acid), pH 4.1 (with 0.05 mM of hydrochloric acid) and pH 7.9 (with 0.20 mM of sodium hydroxide) respectively, by adding with hydrochloric acid or sodium hydroxide aqueous solution.
These four solutions were stored at 25±2° C. for 1 and 3 day, and after storage, the HPLC analyses of each solutions were conducted to calculate the peak area ratio of human ghrelin(1-7)amide, desacyl human ghrelin(1-7)amide and [3-dehydroalanine]-human ghrelin(1-7)amide to the total peak area.

[2] = compared with human ghrelin; cited from earlier work
[3] = Adsorption inhibiting effect of anti-adsorbents on human ghrelin in glass and polypropylene test tubes (Example 9); type: physicochemical; settings: for Adsorption inhibiting effect: added at 0.01% or 0.1% to human ghrelin 1.0 μg/mL solution; for Human ghrelin concentration of the solution (Initial Conc. = 100): human ghrelin 1.0 μg/mL in 5% mannitol-0.05M glycine hydrochloride buffer (pH 3.5)
Method: As the anti-adsorbent, the surfactant, that is, polyoxyethylene sorbitan monooleate (hereinafter, referred to as Tween® 80), and benzalkonium chloride were selected.
The anti-adsorbent was added to this solution with 0.01% or 0.1% concentration.
The human ghrelin concentrations of each solution were measured by HPLC method right after preparation, and these solutions were replaced in glass test tubes. After that, each solution were further replaced in new glass test tubes, and same operation was repeated for 5 and 10 times, then, the human ghrelin concentrations of each treated solution were measured by HPLC method. As a control, the solution not containing anti-adsorbent was examined.
Same procedure was repeated by using test tube made by polypropylene instead of glass test tube.

[4] = human ghrelin(1-7)amide 0.1 mg/mL in purified water adjusted to pH 1.8 with hydrochloric acid, 1 day after
[5] = human ghrelin(1-7)amide 0.1 mg/mL in purified water adjusted to pH 1.8 with hydrochloric acid, 3 days after
[6] = human ghrelin(1-7)amide 0.1 mg/mL in purified water adjusted to pH 1.8 with hydrochloric acid, before storage
[7] = human ghrelin(1-7)amide 0.1 mg/mL in purified water adjusted to pH 4.1 with hydrochloric acid, 1 day after
[8] = human ghrelin(1-7)amide 0.1 mg/mL in purified water adjusted to pH 4.1 with hydrochloric acid, 3 days after
[9] = human ghrelin(1-7)amide 0.1 mg/mL in purified water adjusted to pH 4.1 with hydrochloric acid, before storage
[10] = human ghrelin(1-7)amide 0.1 mg/mL in purified water adjusted to pH 7.9 with sodium hydroxide, 1 day after
[11] = human ghrelin(1-7)amide 0.1 mg/mL in purified water adjusted to pH 7.9 with sodium hydroxide, 3 days after
[12] = human ghrelin(1-7)amide 0.1 mg/mL in purified water adjusted to pH 7.9 with sodium hydroxide, before storage
[13] = human ghrelin(1-7)amide 0.1 mg/mL in purified water, pH 5.0 (not adjusted), 1 day after
[14] = human ghrelin(1-7)amide 0.1 mg/mL in purified water, pH 5.0 (not adjusted), 3 days after
[15] = human ghrelin(1-7)amide 0.1 mg/mL in purified water, pH 5.0 (not adjusted), before storage
[16] = anti-adsorbent 0.01%, Glass tube, replaced 5 times
[17] = anti-adsorbent 0.01%, Glass tube, replaced 10 times
[18] = anti-adsorbent 0.01%, Initial Conc.
[19] = anti-adsorbent 0.01%, Polypropylene tube, replaced 5 times
[20] = anti-adsorbent 0.01%, Polypropylene tube, replaced 10 times
[21] = anti-adsorbent 0.1%, Glass tube, replaced 5 times
[22] = anti-adsorbent 0.1%, Glass tube, replaced 10 times
[23] = anti-adsorbent 0.1%, Initial Conc.
[24] = anti-adsorbent 0.1%, Polypropylene tube, replaced 5 times
[25] = anti-adsorbent 0.1%, Polypropylene tube, replaced 10 times

Substance | Peak area ratio to total peak area [1, 4] [%] | Peak area ratio to total peak area [1, 5] [%] | Peak area ratio to total peak area [1, 6] [%] | Peak area ratio to total peak area [1, 7] [%] | Peak area ratio to total peak area [1, 8] [%] | Peak area ratio to total peak area [1, 9] [%] | Peak area ratio to total peak area [1, 10] [%] | Peak area ratio to total peak area [1, 11] [%] | Peak area ratio to total peak area [1, 12] [%] | Peak area ratio to total peak area [1, 13] [%] | Peak area ratio to total peak area [1, 14] [%] | Peak area ratio to total peak area [1, 15] [%] | Adsorption inhibiting effect [3] | Human ghrelin concentration of the solution (Initial Conc. = 100) [3, 16] | Human ghrelin concentration of the solution (Initial Conc. = 100) [3, 17] | Human ghrelin concentration of the solution (Initial Conc. = 100) [3, 18] | Human ghrelin concentration of the solution (Initial Conc. = 100) [3, 19] | Human ghrelin concentration of the solution (Initial Conc. = 100) [3, 20] | Human ghrelin concentration of the solution (Initial Conc. = 100) [3, 21] | Human ghrelin concentration of the solution (Initial Conc. = 100) [3, 22] | further results
Human ghrelin(1-7)amide | 95.40 | 90.11 | 98.39 | 98.68 | 98.60 | 98.76 | 95.89 | 92.54 | 98.22 | 98.57 | 98.51 | 98.69 |  |  |  |  |  |  |  |  | Production of the degradation products ([1]; aqueous solution of pH 4.1 and 5.0, 25±2°C, up to 3 days): inhibited; Peak area ratio to total peak area ([1]; human ghrelin(1-7)amide 0.1 mg/mL in purified water adjusted to pH 1.8 with hydrochloric acid, 1 day after, listed as human ghrelin(1-7)amide): less than 98%; Peak area ratio to total peak area ([1]; human ghrelin(1-7)amide 0.1 mg/mL in purified water adjusted to pH 7.9 with sodium hydroxide, 1 day after, listed as human ghrelin(1-7)amide): less than 98%; pH of the solution ([1]; human ghrelin(1-7)amide dissolved in purified water, about 0.12 μmol/mL (0.1 mg/mL)): 5.0; Biological activity [2]: same biological activity as human ghrelin
[3-dehydroalanine]-human ghrelin(1-7)amide | 0.07 | 0.10 | 0.02 | 0.03 | 0.01 | 0.00 | 0.23 | 0.54 | 0.03 | 0.02 | 0.06 | 0.00 |  |  |  |  |  |  |  |  | 
benzalkonium chloride |  |  |  |  |  |  |  |  |  |  |  |  | high adsorption inhibiting effect against both glass tube and polypropylene tube | 81 | 64 | 100 | 97 | 96 | 99 | 99 | Human ghrelin concentration of the solution (Initial Conc. = 100) [3, 23]: 100; Human ghrelin concentration of the solution (Initial Conc. = 100) [3, 24]: 99; Human ghrelin concentration of the solution (Initial Conc. = 100) [3, 25]: 101
desacyl human ghrelin(1-7)amide | 3.75 | 8.89 | 0.98 | 0.73 | 0.77 | 0.72 | 3.21 | 6.21 | 1.12 | 0.73 | 0.79 | 0.70 |  |  |  |  |  |  |  |  | 
polyoxyethylene sorbitan monooleate [Tween 80] |  |  |  |  |  |  |  |  |  |  |  |  | high adsorption inhibiting effect against polypropylene tube | 17 | 0 | 100 | 90 | 90 | 20 | 5 | Human ghrelin concentration of the solution (Initial Conc. = 100) [3, 23]: 100; Human ghrelin concentration of the solution (Initial Conc. = 100) [3, 24]: 93; Human ghrelin concentration of the solution (Initial Conc. = 100) [3, 25]: 91
